2 compounds from paper PMC11459959, “Discovery of new acetamide derivatives of 5-indole-1,3,4-oxadiazol-2-thiol as inhibitors of HIV-1 Tat-mediated viral transcription” (Antimicrobial Agents and Chemotherapy, 2024) can be followed below.

Holding throughout (assay): microbe, parasite or virus in culture
What all share (assay type): cell-based

For assay [1], the system named is NRTI-resistant HIV-1 strain 7396. The conditions noted are these: Human immunodeficiency virus 1, TZM-bl.
The test system of assay [2] is NRTI-resistant HIV-1 strain 7406. The conditions noted are these: Human immunodeficiency virus 1, TZM-bl.
In assay [3] the test system is PI-resistant HIV-1 strain 11803. The conditions noted are these: Human immunodeficiency virus 1, TZM-bl.
For assay [4], the system named is NRTI-resistant HIV-1 strain 7407. The following applies: Human immunodeficiency virus 1, TZM-bl.
In assay [5] the test system is PI-resistant HIV-1 strain 11800. The following applies: Human immunodeficiency virus 1, TZM-bl.
Assay [6] deals with PI-resistant HIV-1 strain 11803. The conditions noted are these: Human immunodeficiency virus 1, PBMC. From the text: (§1) The Tzm-bl-derived dual Tat reporter; TZM-bl/Tat/Rluc (bl-DTR) cells were established from TZM-bl cells using two Dox-inducible lentiviral expression cassettes cloned with Flag-tagged Tat86 and the R-Luc gene, as described in our previous study ([11]). TZM-bl, A3.01, J1.1, and J-Lat 6.3 cells as well as the HIV-1 molecular clone pNL4-3, pNL(AD8), ARV-resistant HIV-1 strains, and HIV-1NL43-IRES-eGFP (pBR43IeG-nef^+, gifted by Dr. Frank Kirchhoff) ([52]) were provided by the National Institute of Health HIV Reagent Program (NIH, Bethesda, MD, USA). HeLa (CCL-2) and 293T (CRL-3216) cell lines were purchased from the American Type Culture Collection (ATCC, Manassas, VA, USA). The bl-DTR, TZM-bl, HeLa, and 293T cells were cultured in Dulbecco’s modified Eagle’s medium supplemented with 1% penicillin–streptomycin and 10% (vol/vol) heat-inactivated fetal bovine serum (all from Gibco-BRL, Gaithersburg, MD, USA), and 1 µg/mL of puromycin and 200 µg/mL of zeocin were additionally supplemented for the bl-DTR cells. PBMCs were purchased from AllCells (Alameda, CA, USA) and cultured as previously described ([12]). The information on ARV-resistant HIV-1 strains was described in previous reports as follows: NNRTI-resistant 12241 and 12243 ([53]); NRTI-resistant 7396, 7406, and 7407 ([54]); INSTI-resistant 11847 and 11849 ([55], [56]); and PI-resistant 11800 and 11803 ([57]). Each molecular HIV-1 clone was transfected to 293T cells, as previously described ([58]), to obtain infectious HIV-1 particles. Virus-containing cell culture supernatants were collected 3 days after transfection, and filtered through a 0.45-µm membrane filter (Millipore Sigma, Burlington, MA, USA) to remove cell debris. The viral titration was performed as described previously ([59]) with some minor modifications. In brief, 1 × 10^4 TZM-bl cells seeded in 96-well plates were infected with 200 µL of virus-containing medium diluted serially twofold. The incubation was for 2 days and the experiment was performed in triplicate; the infection time minimized the virus spread ([59]). The titration of the infectious viral particles was performed with a ß-Gal staining assay using the ßeta-Galactosidase Staining Kit (Mirus Bio, Madison, WI, USA) following the manufacturer’s protocols. In brief, the infected cells were washed with phosphate-buffered saline (PBS) and fixed using a Cell Fixative Working solution. The cells were washed with PBS and stained using the Cell Staining Working Solution containing X-gal. The infected blue-colored cells were counted under a microscope (100× magnification). The infectious virus titer was determined as a mean value of blue-colored cells count × dilution factor and used for determining the multiplicity of infection (MOI) in each infection experiment.
(§2) The inhibitory effects of the compounds on viral replication were determined with some minor modifications, as previously described ([12], [62]). […] PBMCs (4 × 10^5) pre-activated with PHA-M for 3 days were washed with fresh media to remove excess PHA-M and subsequently infected with HIV-1NL4-3 or HIV-1AD8 or PIs-resistant HIV-1 strains as A3.01 infection. After infection, the infectious media were replaced with fresh media supplemented with international 10 units (IU)/mL of IL-2 and the indicated compounds. At 72 h after infection, the inhibitory effect of the compounds on viral replication was determined by measuring the p24 amount, an HIV capsid protein, using an HIV-1 p24 […] kit (PerkinElmer, Waltham, MA, USA). Cell viability was determined as described above. The inhibitory effects on provirus reversing in J1.1 and J-Lat 6.3 cells were determined as previously described ([12], [41], [63]) with some minor modifications.

Assay [7] deals with PI-resistant HIV-1 strain 11800. The conditions noted are these: Human immunodeficiency virus 1, PBMC.
Description: as §1, §2

The structures appear in SMILES notation.

With `Cc1[nH]c2ccc(-c3nnc(SCC(=O)N4CCCCC4)o3)cc2c1C` [Compound 9, 2-((5-(2,3-Dimethyl-1H-indol-5-yl)-1,3,4-oxadiazol-2-yl)thio)-1-(piperidin-1-yl)ethan-1-one], the EC50 (in general, the concentration that produces a half-maximal response) in assay [1] stood at 70 nM; in assay [2], 90 ± 10 nM; in assay [3], 70 ± 10 nM; in assay [4], 70 ± 10 nM; in assay [5], 80 ± 10 nM; in assay [6], 260 ± 80 nM. The compound also displayed an EC50 in assay [7] of 540 ± 250 nM.

Consider `Cc1[nH]c2ccc(-c3nnc(SCC(=O)N4CCCC4)o3)cc2c1C` [Compound 13, 2-((5-(2,3-Dimethyl-1H-indol-5-yl)-1,3,4-oxadiazol-2-yl)thio)-1-(pyrrolidin-1-yl)ethan-1-one], for which the EC50 in assay [1] amounted to 150 ± 10 nM; in assay [2] it was 160 ± 20 nM; in assay [3] it was 160 ± 20 nM; in assay [4], 190 ± 10 nM; in assay [5], 130 ± 100 nM; in assay [6] it was 280 ± 40 nM. In addition, the EC50 in assay [7] worked out at 810 ± 30 nM.
